Measured values reported in publication PMC2360237, “A phase Ib study of pertuzumab, a recombinant humanised antibody to HER2, and docetaxel in patients with advanced solid tumours” (British Journal of Cancer, 2007).
Like-named read-outs stand apart in the source and are kept apart here.

Assays:
[1] = test system: patients with advanced solid tumours
Experimental: This was a phase Ib, open-label, two-center study. […] Pertuzumab was provided by F Hoffmann-La Roche (Basel, Switzerland). Each 10 ml single-use vial contained 175 mg of pertuzumab formulated in 10 mmol l^−1 L-histidine (pH6.0), 240 mmol l^−1 sucrose, and 0.02% polysorbate 20. The first dose of pertuzumab was given by intravenous infusion over 90 min. […] Initially, the planned dose of pertuzumab was fixed dose at 1050 mg for each dose level. […] The dose of docetaxel was sequentially escalated from 60 to 75 to 100 mg m^−2 as outlined in Table 1. […] Initially, three patients were treated in cohort 1, with the first patient being monitored for at least 2 weeks before additional patients were treated. Escalation to a new dose level was permitted when at least two of three patients had been evaluated for 3 weeks. […] At least six patients were to be treated at the 75 and 100 mg m^−2 dose levels before a recommended phase II dose was declared. […]
The incidence and severity of all adverse events, changes in vital signs, laboratory assessments, physical examination findings, and medical conditions during and after treatment with pertuzumab were assessed at least weekly during the first two cycles, and at least weekly three times thereafter, and graded according to NCI-CTC Version 3. […]

[2] = Docetaxel plasma pharmacokinetics (LC-MS/MS, non-compartmental) alone and with pertuzumab in phase Ib patients; format: in vivo, human; conditions: for AUC(0-inf) / Cmax / half-life: human, plasma, intravenous; for AUC(0-inf): read-out: AUC0-∞ mean (range); for Cmax: read-out: Cmax mean (range); for half-life: read-out: t1/2 mean (range) (converted)
Experimental: (§1) In the first treatment cycle, blood withdrawal for PK analysis was performed 15 and 30 min prior to administration of docetaxel and 15 and 30 min and 1, 2, 4, 8 and 23 h, post administration. Pertuzumab was administered at least 24 h after, on day 2, followed by PK analysis at 15 min and 1.5, 4 and 8 h. In the second cycle, pertuzumab was administered on day 1, immediately followed by the administration of docetaxel and sampling for PK analysis was repeated for both drugs. Plasma samples of docetaxel were analysed using a validated specific liquid chromatography-mass spectrometry (LC-MS/MS) method as described previously ([Agus et al, 2005]). Serum samples were assayed for pertuzumab concentrations using a receptor-binding, enzyme-linked immunosorbent assay. The assay uses immobilised antigen p185^HER2 ECD to capture pertuzumab from serum samples. Bound pertuzumab was detected with mouse anti-human Fc-horseradish peroxidase (Jackson ImmunoResearch Laboratories Inc., West Grove, PA, USA), and tetramethyl benzidine (KPL Inc., Gaithersburg, MD, USA) used as the substrate for colour development to quantify serum pertuzumab against a known standard curve. The assay has a minimum quantifiable concentration of 0.25 μg ml^−1 for pertuzumab in human serum. Pharmacokinetic parameters for docetaxel and pertuzumab were estimated using non-compartmental methods (WinNonLin software version 5.0.1).

[3] = test system: patients with advanced cancer; conditions: cited from earlier work
[4] = Pertuzumab serum pharmacokinetics (receptor-binding ELISA, non-compartmental) in phase Ib patients; conditions: for AUC0-last mean (range) / AUC0-∞ mean (range) / Cl mean (range) / Cmax mean (range) / Vss mean (range): serum
Experimental: as §1

[5] = test system: refractory ovarian cancer; HRPC; conditions: cited from earlier work
[6] = Cohort 1, docetaxel 60 mg m^−2 + pertuzumab 1050 mg, cycle 2, n=6, plasma
[7] = Cohort 1, docetaxel 60 mg m^−2 alone, cycle 1, n=6, plasma
[8] = Cohort 2A, docetaxel 75 mg m^−2 + pertuzumab 420 mg, cycle 2, n=6, plasma
[9] = Cohort 2A, docetaxel 75 mg m^−2 alone, cycle 1, n=6, plasma
[10] = Cohort 3A, docetaxel 100 mg m^−2 + pertuzumab 420 mg, cycle 2, n=4, plasma
[11] = Cohort 3A, docetaxel 100 mg m^−2 alone, cycle 1, n=5, plasma
[12] = 60 mg m^−2, Cohort 1, docetaxel 60 mg m^−2 alone, cycle 1, n=6, plasma
[13] = 75 mg, Cohort 2A, docetaxel 75 mg m^−2 alone, cycle 1, n=6, plasma
[14] = 100 mg, Cohort 3A, docetaxel 100 mg m^−2 alone, cycle 1, n=5, plasma
[15] = pertuzumab 420 mg, cycle 2, n=10, in combination with docetaxel
[16] = pertuzumab 840 mg (loading dose), cycle 1, n=11, in combination with docetaxel
[17] = pertuzumab 1050 mg, cycle 1, n=8, in combination with docetaxel
[18] = pertuzumab 1050 mg, cycle 2, n=7, in combination with docetaxel

CC(=O)O[C@@]12CO[C@@H]1C[C@H](O)[C@@]1(C)C(=O)[C@H](O)C3=C(C)[C@@H](OC(=O)[C@H](O)[C@@H](NC(=O)OC(C)(C)C)c4ccccc4)C[C@@](O)([C@@H](OC(=O)c4ccccc4)[C@H]21)C3(C)C [docetaxel, Docetaxel]
Recommended phase II dose of docetaxel in the combination ([1]; with pertuzumab 420 mg following a loading dose of 840 mg, intravenously every 3 weeks): 75 mg m^−2 | Cl mean (range) [2, 6]: 36 (23–40) × 10^3 ml h m^−2 | Vss mean (range) [2, 6]: 102 (64–154) × 10^4 ml m^−2 | Cl mean (range) [2, 7]: 33 (28–39) × 10^3 ml h m^−2 | Vss mean (range) [2, 7]: 79 (42–100) × 10^4 ml m^−2 | Cl mean (range) [2, 8]: 24 (15–34) × 10^3 ml h m^−2 | Vss mean (range) [2, 8]: 57 (20–110) × 10^4 ml m^−2 | Cl mean (range) [2, 9]: 22 (13–31) × 10^3 ml h m^−2 | Vss mean (range) [2, 9]: 41 (18–70) × 10^4 ml m^−2 | Cl mean (range) [2, 10]: 22 (12–41) × 10^3 ml h m^−2 | Vss mean (range) [2, 10]: 43 (16–76) × 10^4 ml m^−2 | Cl mean (range) [2, 11]: 18 (12–28) × 10^3 ml h m^−2 | Vss mean (range) [2, 11]: 25 (16–32) × 10^4 ml m^−2 | Pharmacokinetic drug–drug interaction (Cmax, AUC and clearance of docetaxel alone vs in combination with pertuzumab) ([2]; cycle 1 alone vs cycle 2 combined): no drug–drug interaction | AUC(0-inf) [2, 12]: 1840 ng·h/mL | Cmax [2, 12]: 1640 ng/mL | half-life [2, 12]: 16.9 h | AUC(0-inf) [2, 13]: 3740 ng·h/mL | Cmax [2, 13]: 3130 ng/mL | half-life [2, 13]: 12.7 h | AUC(0-inf) [2, 14]: 5930 ng·h/mL | Cmax [2, 14]: 5450 ng/mL | half-life [2, 14]: 9.59 h | AUC(0-inf) [2, 6]: 1730 ng·h/mL | Cmax [2, 6]: 1700 ng/mL | half-life [2, 6]: 19.7 h | AUC(0-inf) [2, 8]: 3500 ng·h/mL | Cmax [2, 8]: 2720 ng/mL | half-life [2, 8]: 15.2 h | AUC(0-inf) [2, 10]: 5220 ng·h/mL | Cmax [2, 10]: 4700 ng/mL | half-life [2, 10]: 12.8 h

pertuzumab: fully humanised monoclonal antibody, which acts by blocking the association of HER2 with other HER family members
Recommended phase II dose of pertuzumab in the combination ([1]; in vivo, iv): 420 mg | Terminal elimination half-life ([3]; in vivo): 2–4 weeks | Tolerability ([3]; in vivo): well tolerated | Maximum tolerated dose ([3]; single-agent pertuzumab, phase I studies, not reached, ref Agus et al, 2005): > 15 mg/kg | PK parameters of pertuzumab in the presence of docetaxel compared with single agent ([4]; 1050 mg cycles 1 and 2, 840 mg cycle 1 and 420 mg cycle 2): comparable with single agent values | AUC0-last mean (range) [4, 15]: 1491 (914–2289) μg day ml^−1 | AUC0-∞ mean (range) [4, 15]: 2762 (1639–3827) μg day ml^−1 | Cl mean (range) [4, 15]: 169 (110–256) ml per day | Cmax mean (range) [4, 15]: 150 (102–233) μg ml^−1 | Vss mean (range) [4, 15]: 4233 (2823–7058) ml | AUC0-last mean (range) [4, 16]: 1749 (1214–3083) μg day ml^−1 | AUC0-∞ mean (range) [4, 16]: 2796 (1604–5116) μg day ml^−1 | Cl mean (range) [4, 16]: 329 (164–524) ml per day | Cmax mean (range) [4, 16]: 255 (169–447) μg ml^−1 | AUC0-last mean (range) [4, 17]: 2390 (1733–3355) μg day ml^−1 | AUC0-∞ mean (range) [4, 17]: 3951 (2348–4980) μg day ml^−1 | Cl mean (range) [4, 17]: 282 (211–447) ml per day | Cmax mean (range) [4, 17]: 301 (143–394) μg ml^−1 | Vss mean (range) [4, 17]: 5214 (2975–7036) ml | AUC0-last mean (range) [4, 18]: 3500 (3010–4346) μg day ml^−1 | AUC0-∞ mean (range) [4, 18]: 6856 (4521–11426) μg day ml^−1 | Cmax mean (range) [4, 18]: 368 (253–463) μg ml^−1 | Vss mean (range) [4, 18]: 4672 (3023–6580) ml | Anti-tumour activity ([5]; single-agent pertuzumab, refractory ovarian cancer, ref Gordon et al, 2006): Significant anti-tumour activity | Anti-tumour activity ([5]; single-agent phase II study, HRPC, ref De Bono et al, 2007): no evidence of anti-tumour activity
